Laboratory results reported in PMC8031368 (ACS chemical biology, 2020).
Blank lines part the entries; values can stand above or below the molecule they belong to.

Key:
GR [1] = assay: Immunoblot of GR in tissues of JG231 treated mice; assay type: in vivo; details: JG231 4 mg/kg/day for 3 days intraperitoneally
GR in MCF7 = assay: Immunoblot of GR in MCF7 cells treated with JG231; assay type: cell-based, human; details: 24 h
GR in MDA MB 231 = assay: Immunoblot of GR in MDA MB 231 cells treated with JG231; assay type: cell-based, human; details: 24 h
[2] = test system: prostate cancer mouse models; details: cited from earlier work
[3] = test system: GR target genes (GILZ, FKBP5, Per1) in DU145 cells; assay: Real time PCR of GR target genes in DU145 cells; assay type: cell-based, human; details: DU145 cells, dexamethasone 1 μM, 6 h exposure
[4] = Determination of partition coefficient; assay type: physicochemical; details: 1-octanol / PBS pH 7.4
[5] = Dynamic PET scan over 60 min, time activity curves; assay type: in vivo; details: male C57Bl6/J mice
[6] = Biodistribution study post mortem; assay type: in vivo; details: C57Bl6/J mice, mean ± SD
GR [7] = target: T1, GR (Mus musculus, UniProt P06537); assay: 18F-YJH08 PET/CT in adipocyte specific GR knockout mice; assay type: in vivo; details: vs wild type litter mate, supraspinal and scapular brown fat depots
T1 sequence (P06537 1-792): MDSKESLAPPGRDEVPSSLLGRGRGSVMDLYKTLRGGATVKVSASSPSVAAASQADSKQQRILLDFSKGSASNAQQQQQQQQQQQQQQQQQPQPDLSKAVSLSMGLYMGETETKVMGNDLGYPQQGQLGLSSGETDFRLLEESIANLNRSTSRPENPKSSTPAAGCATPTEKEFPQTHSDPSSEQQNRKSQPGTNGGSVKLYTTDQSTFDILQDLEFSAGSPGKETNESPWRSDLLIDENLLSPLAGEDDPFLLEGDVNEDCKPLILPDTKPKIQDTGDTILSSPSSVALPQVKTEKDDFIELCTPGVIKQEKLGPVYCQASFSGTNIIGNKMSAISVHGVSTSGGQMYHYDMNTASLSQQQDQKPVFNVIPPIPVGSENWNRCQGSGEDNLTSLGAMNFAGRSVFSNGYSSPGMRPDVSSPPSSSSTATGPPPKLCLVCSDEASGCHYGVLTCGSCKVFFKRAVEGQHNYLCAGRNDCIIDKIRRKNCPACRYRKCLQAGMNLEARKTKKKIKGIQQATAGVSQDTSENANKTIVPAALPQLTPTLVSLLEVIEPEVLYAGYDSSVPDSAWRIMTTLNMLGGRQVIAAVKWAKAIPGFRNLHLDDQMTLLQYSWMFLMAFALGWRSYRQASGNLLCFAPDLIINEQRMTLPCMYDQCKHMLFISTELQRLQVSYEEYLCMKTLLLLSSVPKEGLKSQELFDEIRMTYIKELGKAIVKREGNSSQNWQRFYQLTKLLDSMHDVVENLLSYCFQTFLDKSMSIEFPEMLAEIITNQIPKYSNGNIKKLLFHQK

GR [8] = target: T1, GR; assay: 18F-YJH08 uptake in adrenalectomized mice

Structure (SMILES): CCn1c(=O)/c(=C2\Sc3cc(Cl)ccc3N2C)s/c1=C\c1scc[n+]1Cc1ccc(Br)s1.[Cl-] [JG231]
- change in GR levels in kidneys, liver, and muscle (GR [1]): no change
- reduction in GR expression levels in brown fat (GR [1]): ~ 50%
- GR degradation (immunoblot) (GR in MCF7): degrades GR
- GR degradation (immunoblot) (GR in MDA MB 231): degrades GR
- antitumor activity [2]: antitumor activity

Structure (SMILES): C[C@@H]1C[C@H]2[C@@H]3CCC4=CC(=O)C=C[C@]4(C)[C@@]3(F)[C@@H](O)C[C@]2(C)[C@@]1(O)C(=O)CO [dexamethasone, reference compound]
- induction of Per1 [3]: induced

- partition coefficient (log P) [4]: 2.78
- mechanism of clearance ([5]; liver uptake and washout): hepatobiliary
- uptake in adrenal gland ([6]; 30 min after injection): 20.02 ± 2.21 % ID/g
- uptake in adrenal gland ([6]; 60 min after injection): 9.43 ± 0.08 % ID/g
- uptake in adrenal gland ([6]; 90 min after injection): 5.72 ± 2.32 % ID/g
- uptake in blood ([6]; 30 min after injection): 0.85 ± 0.1 % ID/g
- uptake in blood ([6]; 60 min after injection): 0.57 ± 0.02 % ID/g
- uptake in blood ([6]; 90 min after injection): 0.49 ± 0.06 % ID/g
- uptake in bone ([6]; 30 min after injection): 1.11 ± 0.15 % ID/g
- uptake in bone ([6]; 60 min after injection): 0.61 ± 0.15 % ID/g
- uptake in bone ([6]; 90 min after injection): 0.58 ± 0.16 % ID/g
- uptake in brain ([6]; 30 min after injection): 1.68 ± 0.14 % ID/g
- uptake in brain ([6]; 60 min after injection): 1.33 ± 0.06 % ID/g
- uptake in brain ([6]; 90 min after injection): 0.97 ± 0.03 % ID/g
- uptake in heart ([6]; 30 min after injection): 3.04 ± 0.75 % ID/g
- uptake in heart ([6]; 60 min after injection): 1.33 ± 0.21 % ID/g
- uptake in heart ([6]; 90 min after injection): 0.92 ± 0.14 % ID/g
- uptake in kidney ([6]; 30 min after injection): 4.5 ± 0.5 % ID/g
- uptake in kidney ([6]; 60 min after injection): 2.35 ± 0.34 % ID/g
- uptake in kidney ([6]; 90 min after injection): 1.86 ± 0.26 % ID/g
- uptake in large intestine ([6]; 30 min after injection): 1.33 ± 0.35 % ID/g
- uptake in large intestine ([6]; 60 min after injection): 1.23 ± 0.43 % ID/g
- uptake in large intestine ([6]; 90 min after injection): 6.67 ± 4.73 % ID/g
- uptake in liver ([6]; 30 min after injection): 11.03 ± 0.89 % ID/g
- uptake in liver ([6]; 60 min after injection): 7.7 ± 0.69 % ID/g
- uptake in liver ([6]; 90 min after injection): 8.43 ± 1.38 % ID/g
- uptake in lung ([6]; 30 min after injection): 2.65 ± 0.19 % ID/g
- uptake in lung ([6]; 60 min after injection): 2.02 ± 0.29 % ID/g
- uptake in lung ([6]; 90 min after injection): 1.39 ± 0.1 % ID/g
- uptake in muscle ([6]; 30 min after injection): 1.49 ± 0.2 % ID/g
- uptake in muscle ([6]; 60 min after injection): 1.15 ± 0.03 % ID/g
- uptake in muscle ([6]; 90 min after injection): 0.85 ± 0.18 % ID/g
- uptake in pancreas ([6]; 30 min after injection): 4.5 ± 0.15 % ID/g
- uptake in pancreas ([6]; 60 min after injection): 2.63 ± 0.05 % ID/g
- uptake in pancreas ([6]; 90 min after injection): 1.9 ± 0.41 % ID/g
- uptake in small intestine ([6]; 30 min after injection): 19.05 ± 3.27 % ID/g
- uptake in small intestine ([6]; 60 min after injection): 8.61 ± 2.68 % ID/g
- uptake in small intestine ([6]; 90 min after injection): 7.67 ± 2.34 % ID/g
- uptake in spleen ([6]; 30 min after injection): 1.59 ± 0.13 % ID/g
- uptake in spleen ([6]; 60 min after injection): 0.83 ± 0.02 % ID/g
- uptake in spleen ([6]; 90 min after injection): 0.74 ± 0.15 % ID/g
- uptake in stomach ([6]; 30 min after injection): 1.88 ± 0.96 % ID/g
- uptake in stomach ([6]; 60 min after injection): 1.63 ± 0.92 % ID/g
- uptake in stomach ([6]; 90 min after injection): 2.61 ± 1.54 % ID/g
- uptake in supraspinal BAT ([6]; 30 min after injection): 14.41 ± 3.42 % ID/g
- uptake in supraspinal BAT ([6]; 60 min after injection): 16.4 ± 4.93 % ID/g
- uptake in supraspinal BAT ([6]; 90 min after injection): 14.58 ± 1.91 % ID/g
- uptake in fat depots of GR^fl/fl, Adipoq-Cre knockout mice (GR [7]): significantly reduced
- tissue uptake in adx mice compared to intact mice (GR [8]): higher
Structure (SMILES): COc1cccc2c1-c1ccc3c(c1C(Cc1ccc([18F])cc1)O2)C(C)=CC(C)(C)N3 (centres unmarked) [18F-YJH08, ^18F-5-(4-fluorobenzyl)-10-methoxy-2,2,4-trimethyl-2,5-dihydro-1H-chromeno[3,4-f]quinoline]
- radiotracer uptake in the bone (stability to radiodefluorination) [5]: low and approximately equivalent to muscle
